Results: patent US8871900B2, “Fibroblast growth factor (FGF) analogs and uses thereof” (University of Rochester, priority 2008, dated 2014)
Peptide text beside a SMILES is read from it.

How the values were obtained:
[1] = tested on: FGFR on AsPC-1 pancreatic cancer epithelial cells; experiment: Cell surface binding of biotin-FGF-P, imaging flow cytometry (Amnis Imagestream)
Method: Three preliminary experiments were carried out using FGF-P in vitro to confirm its activity. First, the biotin conjugated FGF-P was used as a tool to examine for cell surface binding. AsPC-1 pancreatic cancer epithelial cells are known to have high levels of FGFR and were used for this study. ASPC1 cells were incubated with 1 μg/ml of biotin-FGF-P and then labeled with streptavidin-FITC. The cells were then analyzed using an imaging flow cytometer (Amnis Imagestream). This device can image each cell as it passes through the laser, it can then sort cells according to both staining and morphological characteristics.
These clusters can be counted thus allowing for measurement of relative binding coefficients. To test the feasibility of binding coefficient measurement, competition experiments were performed. Free FGF-P (30 ug/ml) was added to cells for 20 min and then the biotin-FGF-P (1 μg/mL) was added. One hour later, the streptavidin-FITC was added and analyzed by flow cytometry. […] In a third test, a bioassay was performed. […]
Three preliminary experiments were carried out using FGF-P in vitro to confirm its activity. […] The cells were then analyzed using an imaging flow cytometer (Amnis Imagestream). […] These clusters were counted, allowing for measurement of relative binding coefficients. […] One hour later, streptavidin-FITC was added and analyzed by flow cytometry. […]

[2] = Plasma GI endocrine and exocrine markers after sub-TBI; format: in vivo, mouse (Balb/c); details: 10.5 Gy sub-TBI, 3.5 days
Excerpt: The gastrointestinal tract facilitates nutritional absorption and digestion through endocrine organs and exocrine function. Measurements of these functions in Balb/c mice with AGS, with and without FGF-P treatment have been made. Regarding endocrine function, critical proteins produced by epithelial cells lining the small intestine and/or the pancreas are: 1) secretin, which stimulates secretion of a bicarbonate-rich fluid from the pancreas and liver; and 2) insulin, produced by pancreatic β cells, which controls the level of blood glucose. Regarding exocrine function, a major digestive protein, amylase was measured. Amylase is secreted by epithelial cells along the GI tract, including the pancreas.
For secretin, the amino acid sequence in mice is ([…], SEQ ID NO: 4), which has a one amino acid change (M vs. T) at position 5. The kit for human secretin (Peninsula Laboratories, cat #S-1229) has been tested and it recognizes the mouse form. A mouse insulin kit is available (Linco Inc. Cat #EZRMI-13 K). The EnzChek Ultr Amylase Assay kit (Molecular Probes, Cat #E33651.3) can be used for all species, since it measures for the enzymatic product. Blood glucose level can be measured with a commercial kit from Sigma (Cat #GAG0-20 and GAHK-20) and is based on enzymatic activity, which is also universal to all species. Using these kits, the alterations in the plasma concentrations of the GI-derived proteins and peptides in mice that had been exposed to 10.5 Gy sub-TBI and, thereafter, received vehicle alone or FGF-P ([…] im) for 3 doses (10 min, 1 day, and 2 days post-IR) were measured. The samples were collected 3.5 days after irradiation.

[3] = tested on: GM-CSF; experiment: Plasma cytokine arrays after IR; format: in vivo, mouse; details: post-IR
Excerpt: A 96 cytokine membrane array (RayBioTech, Norcross, Ga.) and a Luminex Multiple cytokine beads array (Panomics, Fremont, Calif.) were used to determine the alteration of a panel of plasma cytokines after IR and the effect of FGF-P on reversing the altered pattern. […]-P also exerts homeostatic effect to keep cytokine level towards normal balance.

[4] = molecular target: human FGFR1 (Homo sapiens, UniProt P11362); experiment: Biacore binding assay
[5] = tested on: ERK Pathway; experiment: Phosphorylation of ERK pathway; format: cell-based
[6] = FGF-P (2 mg/ml im) 3 doses, P<0.05

Chain of human FGFR1 (P11362 22-822): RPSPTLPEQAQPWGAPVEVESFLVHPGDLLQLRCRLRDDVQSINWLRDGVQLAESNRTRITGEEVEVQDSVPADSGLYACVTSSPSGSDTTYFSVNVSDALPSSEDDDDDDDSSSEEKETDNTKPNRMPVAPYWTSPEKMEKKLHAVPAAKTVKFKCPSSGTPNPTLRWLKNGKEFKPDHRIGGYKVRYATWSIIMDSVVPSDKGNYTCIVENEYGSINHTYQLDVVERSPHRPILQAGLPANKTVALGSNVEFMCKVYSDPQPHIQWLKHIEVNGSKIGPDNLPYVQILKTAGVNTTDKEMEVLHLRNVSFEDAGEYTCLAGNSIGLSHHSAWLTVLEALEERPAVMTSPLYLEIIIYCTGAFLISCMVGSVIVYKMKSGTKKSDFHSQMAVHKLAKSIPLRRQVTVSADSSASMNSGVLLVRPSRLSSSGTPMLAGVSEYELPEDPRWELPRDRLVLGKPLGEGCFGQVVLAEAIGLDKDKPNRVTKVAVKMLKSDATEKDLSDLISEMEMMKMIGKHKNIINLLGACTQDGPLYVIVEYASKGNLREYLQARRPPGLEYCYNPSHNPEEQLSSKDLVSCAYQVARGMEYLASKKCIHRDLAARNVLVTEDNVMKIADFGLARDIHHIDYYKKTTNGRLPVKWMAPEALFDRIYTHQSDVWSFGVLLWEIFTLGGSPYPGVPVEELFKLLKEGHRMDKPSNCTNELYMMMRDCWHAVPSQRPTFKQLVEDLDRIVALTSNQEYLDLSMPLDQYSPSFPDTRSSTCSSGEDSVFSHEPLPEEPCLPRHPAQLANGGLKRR

Question: For CC(C)C[C@H](NC(=O)[C@H](C)NC(=O)[C@@H](NC(=O)[C@H](Cc1ccc(O)cc1)NC(=O)[C@H](Cc1c[nH]c2ccccc12)NC(=O)[C@H](CO)NC(=O)[C@H](CO)NC(=O)[C@H](Cc1ccc(O)cc1)NC(=O)[C@H](CCCCN)NC(=O)[C@H](CCCNC(=N)N)NC(=O)[C@H](CO)NC(=O)[C@H](CCCNC(=N)N)NC(=O)[C@H](Cc1ccc(O)cc1)NC(=O)[C@@H](N)CS)C(C)C)C(=O)N[C@@H](CCCCN)C(=O)N[C@@H](CCCNC(=N)N)C(=O)N[C@@H](CS)C(=O)O [FGF-P, CYRSRKYSSWYVALKRC] (H-CYRSRKYSSWYVALKRC-OH; N-terminus and C-terminus assumed), which cell surface binding ([1]; AsPC-1 cells, 1 μg/ml biotin-FGF-P, streptavidin-FITC) is on record?
Answer: bound to the cell surface and causes the aggregation of FGFR

Question: And the “competition with biotin-FGF-P for cell surface binding” value ([1]; free FGF-P 30 ug/ml for 20 min, then biotin-FGF-P 1 μg/mL)?
Answer: competed with biotin-FGF-P for cell surface binding

Question: And the plasma amylase level [2, 6]?
Answer: restored it to normal levels

Question: And the plasma insulin levels [2, 6]?
Answer: restored to near normal

Question: And the “plasma level of secretin” value [2, 6]?
Answer: reversed this effect

Question: What about the blood glucose ([2]; FGF-P (im) 3 doses) of the same molecule?
Answer: better preserved

Question: And the “plasma GM-CSF” value [3]?
Answer: increased the IR-reduced GM-CSF

Question: What about the “binding to human FGFR1” value [4] of the same molecule?
Answer: binding of FGF-P to human FGFR1

Question: And the “phosphorylation of ERK pathway” value [5]?
Answer: triggers phosphorylation of ERK Pathway
